PMC7797213, “Vascular effects of serelaxin in patients with stable coronary artery disease: a randomized placebo-controlled trial” (Cardiovascular Research, 2020)

Experiments:
Assay type in all cases: in vivo, human
[1] = tested on: patients with stable coronary artery disease; assay: Applanation tonometry carotid-femoral pulse wave velocity (PWV); details: for PWV, absolute value: mean ± SD; for PWV, adjusted mean difference serelaxin versus placebo / PWV, change from baseline (adjusted mean): repeated measures ANCOVA
Protocol: Secondary endpoints included: the change from baseline in AIx and pulse wave velocity (PWV) assessed at the end of treatment, Day 30 and Day 180; aortic distensibility (assessed with CMR and PWV methods) at the end of treatment; pharmacokinetics and safety (adverse events, serious adverse events, and vital signs) of 48 h infusion of serelaxin 30 μg/kg/day. The changes in levels of circulating biomarkers of cardiorenal and vascular function during and after treatment with serelaxin were also assessed as part of the exploratory endpoints.
The applanation tonometry assessments were performed by blinded operators. Augmentation index [AIx = (augmentation pressure/pulse pressure) × 100], and carotid-femoral PWV were measured by applanation tonometry (Sphygmocor®, AtCor Medical, Australia) at a proximal (carotid artery) and a distal (femoral artery) site of the body, utilizing R-wave gated determination of the time interval between the two measurement points. An averaged carotid pressure waveform (from a 10 s recording) was converted into a corresponding central waveform using a validated transfer function (SphygmoCor®, AtCor, Australia).[27]^,[28]

cystatin C = assay: Plasma biomarker cystatin C; details: for Cystatin C, geo-mean (95% CI): plasma
Protocol: Biomarkers reported include: N-terminal pro-brain natriuretic peptide (NT-proBNP), high-sensitivity troponin T (hsTnT) measured to assess myocardial safety; cystatin C measured to access renal function; the biologically active form of endothelin-1 (1–21), measured to assess vascular function. Venous blood samples were collected at 0 (pre-dose), 24, 48, and 54 h, Day 30, and Day 180. NT-proBNP, hsTnT, and cystatin C samples were collected in EDTA tubes while endothelin-1 samples were collected in EDTA tubes containing aprotinin. Plasma was immediately frozen at −70°C pending analysis in complete patient sets. Commercial biomarker kits were as follows: hsTnT from Roche Diagnostics GmbH, Germany; cystatin C from Gentian, Moss, Norway; and active endothelin-1 […] from Biomedica Medizinprodukte, Vienna, Austria.
For the biomarker analyses, baseline was defined as the pre-dose assessment on Day 1. Raw values as well as changes from baseline were summarized by treatment and time. Descriptive statistics included geometric mean and 95% CI. For geometric means of change from baseline, a ratio to baseline was used to determine percentage change by first calculating in the log domain and then back transforming using exponentiation.
Baseline corresponds to the value at day 1 pre-dose. For change from baseline, geometric mean and its CI are calculated for the value (post) to baseline ratio.

[2] = tested on: patients with stable coronary artery disease; assay: CMR left and right ventricular volumes and ejection fraction
Text: A standardized CMR protocol was acquired on 1.5 T (Siemens Avanto) or 3.0 T (Siemens Skyra and Verio) magnetic resonance imaging (MRI) scanners. The CMR protocol included standard localizers, long- and short-axis cine acquisitions, stress and rest first-pass perfusion, and late gadolinium enhancement (LGE) imaging as previously described.[24] For perfusion imaging, a saturation recovery prepared fast gradient echo sequence was used to acquire dynamic contrast-enhanced CMR during adenosine stress (140–280 µg/kg/min for 3 min) and rest, during first-pass of the IV administered contrast agent (Gadovist, 0.05 mmol/kg, 5 mL/s), followed by 20 mL saline injection (5 mL/s). Three short-axis planes through the left ventricle (basal, mid-ventricular, and apical) were obtained. […]
CMR image collection, blinding, and handling were managed by an independent imaging contract-research organization (CRO; VirtualScopics, Inc., Rochester, NY, USA). The CMR quantitative analyses were performed by blinded academic readers with >3 years of CMR experience (D.C., A.R., and C.B.). […] Global MPR was calculated from the ratio of global MBF evaluated at stress and at rest (MPR = stress MBF/rest MBF). Global MBF was calculated by averaging the MBF (mL/g/min) for basal, mid, and apical short-axis left ventricular slices. […] The presence or absence of myocardial scar was qualitatively assessed on the LGE images.

With Serelaxin the “PWV, absolute value” ([1]; 0 h (pre-dose baseline), n=22) was 7.45 ± 2.05 (22) meters/second, the “PWV, adjusted mean difference serelaxin versus placebo” value ([1]; 24 h) was -0.157 meters/second and the “PWV, adjusted mean difference serelaxin versus placebo” value ([1]; 24 h, listed as serelaxin) was −0.16 meters/second. The “PWV, change from baseline (adjusted mean)” value (from here on “PWV, change from baseline”) ([1]; 24 h, n=19) was -0.54 meters/second, the “PWV, absolute value” ([1]; 24 h post-dose, n=19) was 7.05 ± 1.88 (19) meters/second and the “PWV, adjusted mean difference serelaxin versus placebo” value ([1]; 47 h) was -0.34 meters/second. The “PWV, change from baseline” value ([1]; 47 h, n=21) was -0.26 meters/second, the “PWV, absolute value” ([1]; 47 h post-dose, n=22) was 7.20 ± 1.92 (22) meters/second and the “PWV, absolute value” ([1]; Day 30, n=23) was 7.99 ± 1.82 (23) meters/second. The “PWV, adjusted mean difference serelaxin versus placebo” value ([1]; Day 30) was -0.06 meters/second, the “PWV, adjusted mean difference serelaxin versus placebo” value ([1]; Day 30, listed as serelaxin) was −0.06 meters/second and the “PWV, change from baseline” value ([1]; Day 30, n=20) was 0.35 meters/second. The “PWV, absolute value” ([1]; Day 180, n=23) was 8.34 ± 2.11 (23) meters/second, the “PWV, adjusted mean difference serelaxin versus placebo” value ([1]; Day 180) was 0.12 meters/second and the “PWV, change from baseline” value ([1]; Day 180, n=20) was 0.93 meters/second. The “Cystatin C change from baseline, geometric mean ratio to baseline (95% CI)” value (cystatin C; 24 h, n=27) was 0.92 (0.89, 0.94), the “Cystatin C change from baseline, geometric mean ratio to baseline (95% CI)” value (cystatin C; 48 h, n=28) was 0.93 (0.91, 0.96) and the “Cystatin C change from baseline, geometric mean ratio to baseline (95% CI)” value (cystatin C; 48 h, n=28, listed as serelaxin) was 0.93. The “Cystatin C change from baseline, geometric mean ratio to baseline (95% CI)” value (cystatin C; 54 h, n=27) was 0.87 (0.80, 0.94), the “Cystatin C change from baseline, geometric mean ratio to baseline (95% CI)” value (cystatin C; 54 h, n=27, listed as serelaxin) was 0.87 and the “Cystatin C change from baseline, geometric mean ratio to baseline (95% CI)” value (cystatin C; Day 30, n=29) was 0.97 (0.93, 1.00). For the same substance, the “Cystatin C change from baseline, geometric mean ratio to baseline (95% CI)” value (cystatin C; Day 180, n=29) was 0.98 (0.89, 1.07), the “Cystatin C, geo-mean (95% CI)” value (cystatin C; 0 h (pre-dose baseline), n=29) was 0.931 (0.876, 0.990) mg/L and the “Cystatin C, geo-mean (95% CI)” value (cystatin C; 0 h (pre-dose baseline), n=29, listed as serelaxin) was 0.93 mg/L. The “Cystatin C, geo-mean (95% CI)” value (cystatin C; 24 h, n=27) was 0.839 (0.788, 0.893) mg/L, the “Cystatin C, geo-mean (95% CI)” value (cystatin C; 48 h, n=28) was 0.867 (0.812, 0.926) mg/L and the “Cystatin C, geo-mean (95% CI)” value (cystatin C; 54 h, n=27) was 0.796 (0.721, 0.878) mg/L. The “Cystatin C, geo-mean (95% CI)” value (cystatin C; Day 30, n=29) was 0.899 (0.842, 0.960) mg/L, the “Cystatin C, geo-mean (95% CI)” value (cystatin C; Day 180, n=29) was 0.908 (0.821, 1.004) mg/L and the “Left and right ventricular volumes and ejection fractions, change from baseline compared with placebo” value ([2]; baseline to 47 h, CMR) was “no statistically significant changes”. The “Left ventricular ejection fraction, mean value” ([2]; remained in the normal range, no significant changes with serelaxin treatment) was 63%.
